Source: US8143263B2, “Therapeutic agents” (Astrazeneca AB, priority 2008, dated 2012)

What follows are compounds tested against T1, recombinant human pancreatic GLK (Homo sapiens, UniProt P35557) (assay: biochemical).
T1 sequence (P35557 1-465): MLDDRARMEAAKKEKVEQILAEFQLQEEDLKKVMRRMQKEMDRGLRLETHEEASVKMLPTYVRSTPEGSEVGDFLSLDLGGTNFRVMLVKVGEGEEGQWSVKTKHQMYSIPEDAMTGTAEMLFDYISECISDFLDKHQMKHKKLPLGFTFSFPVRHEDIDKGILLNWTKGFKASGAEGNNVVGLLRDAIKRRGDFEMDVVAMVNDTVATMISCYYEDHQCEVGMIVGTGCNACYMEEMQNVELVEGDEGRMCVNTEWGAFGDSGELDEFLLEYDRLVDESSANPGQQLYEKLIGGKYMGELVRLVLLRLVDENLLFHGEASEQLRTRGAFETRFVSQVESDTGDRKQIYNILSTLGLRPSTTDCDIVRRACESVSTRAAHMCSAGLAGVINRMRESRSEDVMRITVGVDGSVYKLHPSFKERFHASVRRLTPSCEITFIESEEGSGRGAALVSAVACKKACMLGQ

Row | SMILES | EC50 [nM]
1 | Cc1cccnc1-n1ncc2c(O[C@@H](COC(C)C)C(=O)Nc3ccc(Cl)cn3)ncnc21 [Example 127b, (2S)—N-(5-chloropyridin-2-yl)-3-isopropoxy-2-(1-(3-methylpyridin-2-yl)-1H-pyrazolo[3,4-d]pyrimidin-4-yloxy)propanamide] | 840
2 | CCOC[C@H](Oc1ncnc2c1cnn2-c1ncccc1Cl)C(=O)Nc1ccc(C#N)cn1 [Example 127c, (2S)-2-[1-(3-chloro-2-pyridyl)pyrazolo[4,5-e]pyrimidin-4-yl]oxy-N-(5-cyano-2-pyridyl)-3-ethoxy-propanamide] | 670
3 | CCOC[C@H](Oc1ncnc2c1cnn2-c1ncccc1Cl)C(=O)Nc1ccc(F)cn1 [Example 127d, (2S)-2-[1-(3-chloro-2-pyridyl)pyrazolo[4,5-e]pyrimidin-4-yl]oxy-3-ethoxy-N-(5-fluoro-2-pyridyl)propanamide] | 670
4 | CCOC[C@H](Oc1ncnc2c1cnn2-c1ncccc1Cl)C(=O)Nc1ccccn1 [Example 127e, (2S)-2-[1-(3-chloro-2-pyridyl)pyrazolo[4,5-e]pyrimidin-4-yl]oxy-3-ethoxy-N-(2-pyridyl)propanamide] | 550
5 | CCOC[C@H](Oc1ncnc2c1cnn2-c1ncccc1Cl)C(=O)Nc1ccncn1 [Example 127f, (2S)-2-[1-(3-chloro-2-pyridyl)pyrazolo[4,5-e]pyrimidin-4-yl]oxy-3-ethoxy-N-pyrimidin-4-yl-propanamide] | 1100
6 | CCOC[C@H](Oc1ncnc2c1cnn2-c1ncccc1Cl)C(=O)Nc1ccc(Cl)cn1 [Example 127g, (2S)—N-(5-chloro-2-pyridyl)-2-[1-(3-chloro-2-pyridyl)pyrazolo[4,5-e]pyrimidin-4-yl]oxy-3-ethoxy-propanamide] | 300
7 | CC(C)OC[C@H](Oc1ncnc2c1cnn2-c1ncccc1Cl)C(=O)Nc1nc(C#N)cs1 [Example 127h, (2S)-2-[1-(3-chloro-2-pyridyl)pyrazolo[4,5-e]pyrimidin-4-yl]oxy-N-(4-cyanothiazol-2-yl)-3-isopropoxy-propanamide] | 6400
8 | CC(C)OC[C@H](Oc1ncnc2c1cnn2-c1ncccc1Cl)C(=O)Nc1ccc(Cl)cn1 [Example 127i, (2S)—N-(5-chloro-2-pyridyl)-2-[1-(3-chloro-2-pyridyl)pyrazolo[4,5-e]pyrimidin-4-yl]oxy-3-isopropoxy-propanamide] | 360
9 | CC(C)OC[C@H](Oc1ncnc2c1cnn2-c1ncccc1Cl)C(=O)Nc1ccc(C#N)cn1 [Example 127j, (2S)-2-[1-(3-chloro-2-pyridyl)pyrazolo[4,5-e]pyrimidin-4-yl]oxy-N-(5-cyano-2-pyridyl)-3-isopropoxy-propanamide] | 580
10 | CC(C)OC[C@H](Oc1ncnc2c1cnn2-c1ncccc1Cl)C(=O)Nc1ccccn1 [Example 127k, (2S)-2-[1-(3-chloro-2-pyridyl)pyrazolo[4,5-e]pyrimidin-4-yl]oxy-3-isopropoxy-N-(2-pyridyl)propanamide] | 560
11 | CC(C)OC[C@H](Oc1ncnc2c1cnn2-c1ncccc1Cl)C(=O)Nc1ccc(F)cn1 [Example 127l, (2S)-2-[1-(3-chloro-2-pyridyl)pyrazolo[4,5-e]pyrimidin-4-yl]oxy-N-(5-fluoro-2-pyridyl)-3-isopropoxy-propanamide] | 500
12 | CCOC[C@H](Oc1ncnc2c1cnn2-c1ccncc1C)C(=O)Nc1ccc(Cl)cn1 [Example 128, (2S)—N-(5-Chloropyridin-2-yl)-3-ethoxy-2-[1-(3-methylpyridin-4-yl)pyrazolo[4,5-e]pyrimidin-4-yl]oxypropanamide] | 920
13 | CCOC[C@H](Oc1ncnc2c1cnn2-c1ncccc1C)C(=O)Nc1ccc(Cl)cn1 [Example 128a, (2S)—N-(5-chloropyridin-2-yl)-3-ethoxy-2-(1-(3-methylpyridin-2-yl)-1H-pyrazolo[3,4-d]pyrimidin-4-yloxy)propanamide] | 620
14 | Cc1ccc(NC(=O)[C@H](COC(C)C)Oc2ncnc3c2cnn3-c2ccccc2S(C)(=O)=O)nc1 [Example 129, (2S)-3-isopropoxy-N-(5-methylpyridin-2-yl)-2-(1-(2-(methylsulfonyl)phenyl)-1H-pyrazolo[3,4-d]pyrimidin-4-yloxy)propanamide] | 1300
15 | CCOC[C@H](Oc1ncnc2c1cnn2-c1ccccc1S(C)(=O)=O)C(=O)Nc1ccc(Cl)cn1 [Example 130, (2S)—N-(5-chloropyridin-2-yl)-3-ethoxy-2-(1-(2-(methylsulfonyl)phenyl)-1H-pyrazolo[3,4-d]pyrimidin-4-yloxy)propanamide] | 1100
16 | Cc1ccc(NC(=O)[C@H](CCCO)Oc2ncnc3c2cnn3-c2ncccc2Cl)nc1 [Example 131, (2S)-2-[1-(3-chloropyridin-2-yl)pyrazolo[4,5-e]pyrimidin-4-yl]oxy-5-hydroxy-N-(5-methylpyridin-2-yl)pentanamide] | 410

Row | SMILES | EC50 [nM]
17 | CCOC[C@H](Oc1ncnc2c1cnn2-c1ccccc1C(F)(F)F)C(=O)Nc1ccc(C#N)cn1 [Example 132, (2S)—N-(5-cyanopyridin-2-yl)-3-ethoxy-2-[1-[2-(trifluoromethyl)phenyl]pyrazolo[4,5-e]pyrimidin-4-yl]oxypropanamide] | 470
18 | CCOC[C@H](Oc1ncnc2c1cnn2-c1ccccc1C(F)(F)F)C(=O)Nc1cnc(C)cn1 [Example 133, (2S)-3-ethoxy-N-(5-methylpyrazin-2-yl)-2-[1-[2-(trifluoromethyl)phenyl]pyrazolo[4,5-e]pyrimidin-4-yl]oxypropanamide] | 1100
19 | CCOC[C@H](Oc1ncnc2c1cnn2-c1ncccc1C(F)(F)F)C(=O)Nc1ccc(Cl)cn1 [Example 134, (2S)—N-(5-chloropyridin-2-yl)-3-ethoxy-2-[1-[3-(trifluoromethyl)pyridin-2-yl]pyrazolo[4,5-e]pyrimidin-4-yl]oxypropanamide] | 440
20 | Cc1ccc(NC(=O)[C@H](COC(C)C)Oc2ncnc3c2cnn3-c2ccncc2C)nc1 [Example 135, (2S)—N-(5-methylpyridin-2-yl)-2-[1-(3-methylpyridin-4-yl)pyrazolo[4,5-e]pyrimidin-4-yl]oxy-3-propan-2-yloxypropanamide] | 5900
21 | Cc1cnc(NC(=O)[C@H](COC2CCC2)Oc2ncnc3c2cnn3-c2ccncc2C)cn1 [Example 136, (2S)-3-cyclobutyloxy-N-(5-methylpyrazin-2-yl)-2-[1-(3-methylpyridin-4-yl)pyrazolo[4,5-e]pyrimidin-4-yl]oxypropanamide] | 2100
22 | Cc1cnc(NC(=O)[C@H](COC2CCC2)Oc2ncnc3c2cnn3-c2ncccc2C(F)(F)F)cn1 [Example 137, (2S)-3-cyclobutyloxy-N-(5-methylpyrazin-2-yl)-2-[1-[3-(trifluoromethyl)pyridin-2-yl]pyrazolo[4,5-e]pyrimidin-4-yl]oxypropanamide] | 350
23 | Cc1cnc(NC(=O)[C@H](COC2CCC2)Oc2ncnc3c2cnn3-c2ncc(Cl)cc2C(F)(F)F)cn1 [Example 138, (2S)-2-[1-[5-chloro-3-(trifluoromethyl)pyridin-2-yl]pyrazolo[4,5-e]pyrimidin-4-yl]oxy-3-cyclobutyloxy-N-(5-methylpyrazin-2-yl)propanamide] | 810
24 | CCOC[C@H](Oc1ncnc2c1cnn2-c1ncccc1Cl)C(=O)Nc1ccc(S(C)(=O)=O)cn1 [Example 139, (2S)-2-(1-(3-chloropyridin-2-yl)-1H-pyrazolo[3,4-d]pyrimidin-4-yloxy)-3-ethoxy-N-(5-(methylsulfonyl)pyridin-2-yl)propanamide] | 1400
25 | Cc1cnc(NC(=O)[C@H](COC2CCC2)Oc2ncnc3c2cnn3-c2ccccc2S(C)(=O)=O)cn1 [Example 140, (2S)-3-cyclobutoxy-N-(5-methylpyrazin-2-yl)-2-(1-(2-(methylsulfonyl)phenyl)-1H-pyrazolo[3,4-d]pyrimidin-4-yloxy)propanamide] | 1200
26 | Cc1cnc(NC(=O)[C@H](COC2CCC2)Oc2ncnc3c2cnn3-c2ncccc2C)cn1 [Example 141, (2S)-3-cyclobutoxy-N-(5-methylpyrazin-2-yl)-2-(1-(3-methylpyridin-2-yl)-1H-pyrazolo[3,4-d]pyrimidin-4-yloxy)propanamide] | 340
27 | Cc1cnc(NC(=O)[C@H](COC2CCC2)Oc2ncnc3c2cnn3-c2ccccc2)cn1 [Example 142, (S)-3-cyclobutoxy-N-(5-methylpyrazin-2-yl)-2-(1-phenyl-1H-pyrazolo[3,4-d]pyrimidin-4-yloxy)propanamide] | 2400
28 | Cc1ccc(NC(=O)[C@H](CCO)Oc2ncnc3c2cnn3-c2ncccc2Cl)nc1 [Example 143, (2S)-2-[1-(3-chloro-2-pyridyl)pyrazolo[4,5-e]pyrimidin-4-yl]oxy-4-hydroxy-N-(5-methyl-2-pyridyl)butanamide] | 180
29 | Cc1cnc(NC(=O)[C@H](CCO)Oc2ncnc3c2cnn3-c2ncccc2Cl)cn1 [Example 143a, (2S)-2-[1-(3-chloro-2-pyridyl)pyrazolo[4,5-e]pyrimidin-4-yl]oxy-4-hydroxy-N-(5-methylpyrazin-2-yl)butanamide] | 2600
30 | O=C(Nc1ccc(Cl)cn1)[C@H](CCO)Oc1ncnc2c1cnn2-c1ncccc1Cl [Example 143b, (2S)-N-(5-chloro-2-pyridyl)-2-[1-(3-chloro-2-pyridyl)pyrazolo[4,5-e]pyrimidin-4-yl]oxy-4-hydroxy-butanamide] | 260
31 | O=C(Nc1ccccn1)[C@H](CCO)Oc1ncnc2c1cnn2-c1ncccc1Cl [Example 143c, (2S)-2-[1-(3-chloro-2-pyridyl)pyrazolo[4,5-e]pyrimidin-4-yl]oxy-4-hydroxy-N-(2-pyridyl)butanamide] | 610
